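Briefly, cells in 96-well plates were exposed to five compound concentrations for 48 h, and endpoints were estimated by linear interpolation. GI50 is the concentration that inhibits growth by half. TGI denotes the concentration required for complete inhibition of growth.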
Legend:
Assay in all cases: growth of human tumour cells (NCI), 48 h
NCI-H522 lung = system: NCI-H522 lung
HOP-92 NSCLC = system: HOP-92 NSCLC
EKVX NSCLC = system: EKVX NSCLC
HCT-116 colon = system: HCT-116 colon
SF-539 CNS = system: SF-539 CNS
NCI-H23 lung = system: NCI-H23 lung
BT-549 breast = system: BT-549 breast
OVCAR-3 ovarian = system: OVCAR-3 ovarian
T-47D breast = system: T-47D breast
MDA-MB-231 breast = system: MDA-MB-231 breast
SF-268 CNS = system: SF-268 CNS
OVCAR-4 ovarian = system: OVCAR-4 ovarian
OVCAR-8 ovarian = system: OVCAR-8 ovarian
NCI/ADR-RES ovarian = system: NCI/ADR-RES ovarian
UO-31 renal = system: UO-31 renal
COLO 205 colon = system: COLO 205 colon
UACC-257 melanoma = system: UACC-257 melanoma
PC-3 prostate = system: PC-3 prostate
NCI-H460 lung = system: NCI-H460 lung
SNB-19 CNS = system: SNB-19 CNS
HOP-62 NSCLC = system: HOP-62 NSCLC
MDA-MB-435 = system: MDA-MB-435
K-562 leukemia = system: K-562 leukemia
SK-OV-3 ovarian = system: SK-OV-3 ovarian
HS 578T breast = system: HS 578T breast
DU-145 prostate = system: DU-145 prostate
NCI-H226 lung = system: NCI-H226 lung
LOX IMVI melanoma = system: LOX IMVI melanoma
KM12 colon = system: KM12 colon

## CCCCCn1ncc(-c2c(O)c(O)cc3c(O)c(-c4c(C)cc5c(-c6cnn(CCCCC)n6)c(O)c(O)cc5c4O)c(C)cc23)n1
NCI-H522 lung
  GI50: 98.4 nM
  TGI: 1070 nM
HOP-92 NSCLC
  GI50: 72.3 nM
  TGI: 242 nM
EKVX NSCLC
  GI50: 177 nM
  TGI: 4610 nM
HCT-116 colon
  GI50: 26.2 nM
  TGI: 4070 nM
SF-539 CNS
  GI50: 135 nM
  TGI: 4060 nM
NCI-H23 lung
  GI50: 78 nM
  TGI: 3660 nM
BT-549 breast
  GI50: 91.3 nM
  TGI: 5090 nM
OVCAR-3 ovarian
  GI50: 91.9 nM
  TGI: 4620 nM
T-47D breast
  GI50: 62.7 nM
  TGI: 1420 nM
MDA-MB-231 breast
  GI50: 182 nM
  TGI: 5670 nM
SF-268 CNS
  GI50: 147 nM
  TGI: 4270 nM
OVCAR-4 ovarian
  GI50: 176 nM
  TGI: 4490 nM
OVCAR-8 ovarian
  GI50: 125 nM
  TGI: 3200 nM
NCI/ADR-RES ovarian
  GI50: 903 nM
  TGI: 5320 nM
UO-31 renal
  GI50: 180 nM
  TGI: 1840 nM
COLO 205 colon
  GI50: 595 nM
  TGI: 3220 nM
UACC-257 melanoma
  GI50: 792 nM
  TGI: 6120 nM
PC-3 prostate
  GI50: 147 nM
  TGI: 2530 nM
NCI-H460 lung
  GI50: 25.8 nM
  TGI: 465 nM
SNB-19 CNS
  GI50: 115 nM
  TGI: 5260 nM
HOP-62 NSCLC
  GI50: 140 nM
  TGI: 2750 nM
MDA-MB-435
  GI50: 109 nM
  TGI: 5020 nM
K-562 leukemia
  GI50: 83.7 nM
  TGI: 8440 nM
SK-OV-3 ovarian
  GI50: 142 nM
  TGI: 2640 nM
HS 578T breast
  GI50: 152 nM
  TGI: 8870 nM
DU-145 prostate
  GI50: 64.7 nM
  TGI: 6020 nM
NCI-H226 lung
  GI50: 141 nM
  TGI: 2800 nM
LOX IMVI melanoma
  GI50: 90.8 nM
  TGI: 1160 nM
KM12 colon
  GI50: 101 nM
  TGI: 5250 nM
